Assay results published in patent US20100292231A1, “Indazole Compounds for Treating Inflammatory Disorders, Demyelinating Disorders and Cancers” (priority 2007, published 2010).
Where two headings read alike, the source gives them in different places.

How the values were obtained:
Assay in all cases: SelectScreen kinase specificity survey
Assay type in all cases: biochemical
BLK = target: T1, BLK (Homo sapiens, UniProt P51451); details: estimated, abridged dose response curve, read-out: Kinase inhibitory activity EC50
T1 construct: purchased Invitrogen (SelectScreen)
Procedure: (§1) Testing of the compounds described in this invention was carried out using the SelectScreen™ platform from Invitrogen, Inc. (Carlsbad. Calif., USA) and the details of its performance are readily viewed via the web by linking to: http://www.invitrogen.com/downloads/SelectScrn_Brochure.pdf.
(§2) Briefly, the approach is based on treating each specific kinase with a unique substrate and optical reporter system in the presence of ATP at 100 micromolar. In controls, the substrate is phosphorylated and a baseline optimal response is recorded.
(§3) The compounds were then re-tested by adding graded amounts of putative inhibitor which were added in 5 separate increments to generate a dose response curve. The latter is obtained by fitting to a 4 parameter Hill equation, a sigmoid saturation equation.
(§4) The same assay system described in Example 2 can be applied in the determination of kinase specificity. It is well understood by medicinal chemists in the development of kinase inhibitors that the resulting molecules often lack specificity. Not only are homologous kinases inhibited by the same class of compounds, but also non-homologous kinases can be affected by allosteric, induced, activated vs inactivated conformation, and protein folding interactions with the putative inhibitor, which otherwise had been designed to be specific. These off target effects are difficult to predict and can only be ruled in or out by empirically surveying a large set of kinases. It is also understood that changes to scaffolds and variation in their chemical decorations may influence the extent of promiscuity in the patterns of kinase inhibition across kinase classes.
(§5) The following experiment was conducted to address this issue. The indazole compound (IV), described in Example 2 and representative of the new genus was tested along with Symadex against a panel of 230 kinases representative of all known kinases classes. Included in the survey were the Flt3, its mutant, and close relatives in the Class III receptor tyrosine kinase class, together with serine-threonine kinases and atypical kinases many of which share no homology of active site with Flt3 as shown, for example, in the respective “genecard” for each kinase and available for inspection at on the web at http://www.genecards.org/.
(§6) Table 3 lists the estimated EC50 values from an abridged dose response curve for Symadex (C-1311) and CF-123. The kinases are listed alphabetically by Group and Family.

CDK1/cyclin B (CDC2) = target: T2, CDK1/cyclin B (CDC2) (Homo sapiens, UniProt P06493); details: estimated, abridged dose response curve, read-out: Kinase inhibitory activity EC50
T2 construct: purchased Invitrogen (SelectScreen platform)
T2 sequence (P06493 whole entry): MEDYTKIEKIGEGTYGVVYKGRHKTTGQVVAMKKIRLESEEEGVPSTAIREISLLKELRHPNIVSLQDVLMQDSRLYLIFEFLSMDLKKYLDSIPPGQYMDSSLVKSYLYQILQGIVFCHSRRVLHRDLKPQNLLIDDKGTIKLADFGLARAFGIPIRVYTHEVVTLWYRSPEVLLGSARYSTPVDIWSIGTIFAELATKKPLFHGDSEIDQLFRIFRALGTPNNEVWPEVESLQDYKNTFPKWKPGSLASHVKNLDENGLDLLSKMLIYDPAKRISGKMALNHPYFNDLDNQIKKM
T2 sequence (P14635 whole entry partner): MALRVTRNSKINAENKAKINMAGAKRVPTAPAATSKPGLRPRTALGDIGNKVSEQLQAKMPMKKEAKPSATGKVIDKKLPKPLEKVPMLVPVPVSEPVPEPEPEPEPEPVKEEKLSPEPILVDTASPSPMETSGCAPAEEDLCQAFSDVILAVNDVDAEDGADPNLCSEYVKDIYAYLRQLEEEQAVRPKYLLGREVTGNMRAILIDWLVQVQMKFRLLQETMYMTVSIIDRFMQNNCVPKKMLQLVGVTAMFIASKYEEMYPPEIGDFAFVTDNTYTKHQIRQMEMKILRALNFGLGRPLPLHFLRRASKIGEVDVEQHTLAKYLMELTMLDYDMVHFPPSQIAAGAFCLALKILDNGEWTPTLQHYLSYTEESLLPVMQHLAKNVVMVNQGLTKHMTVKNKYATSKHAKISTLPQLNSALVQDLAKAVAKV
Procedure: as §1, §2, §3, §4, §5, §6

CSNK2A2 (CK2 alpha 2) = target: T3, CSNK2A2 (CK2 alpha 2) (Homo sapiens, UniProt P19784); details: estimated, abridged dose response curve, read-out: Kinase inhibitory activity EC50
T3 construct: purchased Invitrogen, Inc. (SelectScreen service)
T3 sequence (P19784 whole entry): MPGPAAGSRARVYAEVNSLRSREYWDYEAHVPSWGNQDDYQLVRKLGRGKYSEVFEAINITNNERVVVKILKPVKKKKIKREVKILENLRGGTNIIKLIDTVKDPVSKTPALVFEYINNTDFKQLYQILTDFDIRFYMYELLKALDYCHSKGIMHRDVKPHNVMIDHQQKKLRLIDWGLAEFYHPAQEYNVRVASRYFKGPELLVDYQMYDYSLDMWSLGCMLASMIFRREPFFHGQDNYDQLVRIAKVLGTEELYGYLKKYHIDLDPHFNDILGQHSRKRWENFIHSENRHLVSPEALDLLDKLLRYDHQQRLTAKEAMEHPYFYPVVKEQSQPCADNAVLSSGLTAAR
Procedure: as §1, §2, §3, §4, §5, §6

FLT3 = target: T4, FLT3 (Homo sapiens, UniProt P36888); details: estimated, abridged dose response curve, read-out: Kinase inhibitory activity EC50
T4 construct: purchased Invitrogen (SelectScreen platform)
T4 sequence (P36888 27-993): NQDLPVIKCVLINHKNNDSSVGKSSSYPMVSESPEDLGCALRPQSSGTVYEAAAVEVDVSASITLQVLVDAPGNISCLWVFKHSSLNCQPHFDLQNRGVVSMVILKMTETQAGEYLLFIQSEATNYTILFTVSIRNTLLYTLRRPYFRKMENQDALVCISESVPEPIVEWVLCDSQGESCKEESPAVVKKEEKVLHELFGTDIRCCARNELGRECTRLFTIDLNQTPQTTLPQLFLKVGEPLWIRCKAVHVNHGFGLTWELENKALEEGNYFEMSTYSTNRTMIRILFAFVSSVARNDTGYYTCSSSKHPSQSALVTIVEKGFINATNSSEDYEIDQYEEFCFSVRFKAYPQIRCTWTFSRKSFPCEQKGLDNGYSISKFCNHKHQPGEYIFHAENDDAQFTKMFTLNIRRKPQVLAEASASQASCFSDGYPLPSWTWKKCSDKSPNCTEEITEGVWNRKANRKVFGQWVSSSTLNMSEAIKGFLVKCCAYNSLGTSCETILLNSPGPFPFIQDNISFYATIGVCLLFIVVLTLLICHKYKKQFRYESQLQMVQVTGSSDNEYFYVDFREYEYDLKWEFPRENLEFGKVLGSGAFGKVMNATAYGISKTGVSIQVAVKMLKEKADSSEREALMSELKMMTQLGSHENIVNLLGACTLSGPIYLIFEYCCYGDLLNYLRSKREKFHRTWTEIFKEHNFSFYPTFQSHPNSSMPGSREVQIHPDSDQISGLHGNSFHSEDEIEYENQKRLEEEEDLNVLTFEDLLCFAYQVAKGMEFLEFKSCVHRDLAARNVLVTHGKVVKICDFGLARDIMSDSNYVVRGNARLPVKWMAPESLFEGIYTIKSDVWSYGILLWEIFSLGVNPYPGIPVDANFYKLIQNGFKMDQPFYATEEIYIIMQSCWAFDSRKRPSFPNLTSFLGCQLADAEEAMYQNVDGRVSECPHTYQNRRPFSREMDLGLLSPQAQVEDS
Procedure: as §1, §2, §3, §4, §5, §6

GRK5 = target: T5, GRK5 (Homo sapiens, UniProt P34947)
T5 construct: purchased Invitrogen (SelectScreen platform)
T5 sequence (P34947 whole entry): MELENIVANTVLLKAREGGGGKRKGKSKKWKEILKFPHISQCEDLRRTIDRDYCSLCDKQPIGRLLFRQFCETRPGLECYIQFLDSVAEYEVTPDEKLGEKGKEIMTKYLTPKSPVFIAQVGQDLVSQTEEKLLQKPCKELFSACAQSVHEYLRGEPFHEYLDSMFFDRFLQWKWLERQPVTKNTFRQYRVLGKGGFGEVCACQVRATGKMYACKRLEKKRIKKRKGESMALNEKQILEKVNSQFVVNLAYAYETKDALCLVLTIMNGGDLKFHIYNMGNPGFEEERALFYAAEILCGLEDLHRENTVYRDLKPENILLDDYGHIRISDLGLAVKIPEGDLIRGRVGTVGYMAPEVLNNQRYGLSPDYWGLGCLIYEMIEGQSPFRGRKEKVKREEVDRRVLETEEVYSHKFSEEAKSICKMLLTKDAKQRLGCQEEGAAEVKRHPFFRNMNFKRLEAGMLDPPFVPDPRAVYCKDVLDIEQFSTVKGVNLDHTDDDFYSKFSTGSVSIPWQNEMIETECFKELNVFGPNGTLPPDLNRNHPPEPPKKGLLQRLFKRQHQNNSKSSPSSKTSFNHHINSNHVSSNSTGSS
Procedure: as §1, §2, §3, §4, §5, §6

GSK3B (GSK3 beta) = target: T6, GSK3B (GSK3 beta) (Homo sapiens, UniProt P49841); details: estimated, abridged dose response curve, read-out: Kinase inhibitory activity EC50
T6 construct: purchased Invitrogen (SelectScreen platform)
Procedure: as §1, §2, §3, §4, §5, §6

LYN A = target: T7, LYN A (Homo sapiens, UniProt P07948); details: estimated, abridged dose response curve, read-out: Kinase inhibitory activity EC50
T7 construct: purchased Invitrogen (SelectScreen)
Procedure: as §1, §2, §3, §4, §5, §6

MAPK12 (p38 gamma) = target: T8, MAPK12 (p38 gamma) (Homo sapiens, UniProt P53778); details: estimated, abridged dose response curve, read-out: Kinase inhibitory activity EC50
T8 construct: purchased Invitrogen (SelectScreen platform)
T8 sequence (P53778 whole entry): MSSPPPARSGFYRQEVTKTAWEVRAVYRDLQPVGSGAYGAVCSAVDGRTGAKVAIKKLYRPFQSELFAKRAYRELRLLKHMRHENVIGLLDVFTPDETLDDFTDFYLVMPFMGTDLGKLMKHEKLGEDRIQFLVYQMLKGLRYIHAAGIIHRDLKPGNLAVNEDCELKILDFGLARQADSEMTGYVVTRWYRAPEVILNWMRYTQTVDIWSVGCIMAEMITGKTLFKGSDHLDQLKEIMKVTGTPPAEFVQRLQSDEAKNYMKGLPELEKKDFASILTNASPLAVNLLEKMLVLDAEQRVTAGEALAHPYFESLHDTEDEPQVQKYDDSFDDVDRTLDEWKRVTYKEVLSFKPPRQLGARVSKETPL
Procedure: as §1, §2, §3, §4, §5, §6

MAPK13 (p38 delta) = target: T9, MAPK13 (p38 delta) (Homo sapiens, UniProt O15264); details: estimated, abridged dose response curve, read-out: Kinase inhibitory activity EC50
T9 construct: purchased Invitrogen, Inc. (SelectScreen service)
T9 sequence (O15264 whole entry): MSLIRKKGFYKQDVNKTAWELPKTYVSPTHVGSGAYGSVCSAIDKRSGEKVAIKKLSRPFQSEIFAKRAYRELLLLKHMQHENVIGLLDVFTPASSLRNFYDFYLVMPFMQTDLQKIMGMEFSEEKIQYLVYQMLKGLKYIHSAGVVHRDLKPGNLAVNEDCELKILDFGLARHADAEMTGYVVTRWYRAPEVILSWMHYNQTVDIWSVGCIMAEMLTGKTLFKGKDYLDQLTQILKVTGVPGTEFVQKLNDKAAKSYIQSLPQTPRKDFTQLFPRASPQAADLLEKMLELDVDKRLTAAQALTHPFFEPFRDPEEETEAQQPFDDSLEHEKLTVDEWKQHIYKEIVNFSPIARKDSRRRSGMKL
Procedure: as §1, §2, §3, §4, §5, §6

MAPKAPK2 = target: T10, MAPKAPK2 (Homo sapiens, UniProt P49137); details: estimated, abridged dose response curve, read-out: Kinase inhibitory activity EC50
T10 construct: purchased Invitrogen, Inc. (SelectScreen platform)
Procedure: as §1, §2, §3, §4, §5, §6

MERTK (cMER) = target: T11, MERTK (cMER) (Homo sapiens, UniProt Q12866); details: estimated, abridged dose response curve, read-out: Kinase inhibitory activity EC50
T11 construct: purchased Invitrogen (SelectScreen service)
T11 sequence (Q12866 21-999): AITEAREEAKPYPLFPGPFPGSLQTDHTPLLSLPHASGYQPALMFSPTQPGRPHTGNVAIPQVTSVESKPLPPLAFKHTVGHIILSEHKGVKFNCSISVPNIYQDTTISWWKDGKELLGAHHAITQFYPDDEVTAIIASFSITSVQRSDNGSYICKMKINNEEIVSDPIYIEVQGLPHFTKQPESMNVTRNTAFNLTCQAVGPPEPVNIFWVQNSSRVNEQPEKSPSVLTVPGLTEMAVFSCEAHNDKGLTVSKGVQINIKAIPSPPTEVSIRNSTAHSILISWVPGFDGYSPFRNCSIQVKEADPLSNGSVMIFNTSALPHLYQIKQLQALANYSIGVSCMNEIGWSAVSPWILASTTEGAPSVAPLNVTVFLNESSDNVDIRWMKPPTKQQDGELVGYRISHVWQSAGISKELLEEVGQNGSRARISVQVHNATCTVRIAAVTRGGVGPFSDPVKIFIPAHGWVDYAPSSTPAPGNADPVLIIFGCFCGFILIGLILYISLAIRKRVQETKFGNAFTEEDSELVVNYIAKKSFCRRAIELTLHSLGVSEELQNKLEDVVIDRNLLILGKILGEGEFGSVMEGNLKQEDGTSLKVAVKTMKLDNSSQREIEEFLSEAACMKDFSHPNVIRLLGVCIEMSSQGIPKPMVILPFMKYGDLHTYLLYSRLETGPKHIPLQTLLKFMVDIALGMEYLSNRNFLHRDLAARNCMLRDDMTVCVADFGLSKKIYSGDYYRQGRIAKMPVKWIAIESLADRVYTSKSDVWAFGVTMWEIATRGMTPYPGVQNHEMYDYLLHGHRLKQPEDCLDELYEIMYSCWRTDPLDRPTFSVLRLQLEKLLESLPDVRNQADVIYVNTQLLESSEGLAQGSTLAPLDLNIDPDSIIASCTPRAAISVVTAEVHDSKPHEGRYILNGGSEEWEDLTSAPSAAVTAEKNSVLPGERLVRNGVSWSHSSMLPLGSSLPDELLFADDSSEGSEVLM
Procedure: as §1, §2, §3, §4, §5, §6

PIM2 = target: T12, PIM2 (Homo sapiens, UniProt Q9P1W9); details: estimated, abridged dose response curve, read-out: Kinase inhibitory activity EC50
T12 construct: purchased Invitrogen, Inc. (SelectScreen platform)
T12 sequence (Q9P1W9 whole entry): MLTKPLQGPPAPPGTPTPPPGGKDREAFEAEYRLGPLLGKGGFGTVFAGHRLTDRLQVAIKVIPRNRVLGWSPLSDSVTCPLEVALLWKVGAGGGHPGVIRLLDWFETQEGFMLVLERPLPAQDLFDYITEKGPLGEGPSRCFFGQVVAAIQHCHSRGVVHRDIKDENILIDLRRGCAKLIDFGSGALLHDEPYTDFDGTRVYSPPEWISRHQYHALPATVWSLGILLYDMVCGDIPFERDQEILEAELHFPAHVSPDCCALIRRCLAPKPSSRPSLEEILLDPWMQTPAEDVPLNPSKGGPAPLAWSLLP
Procedure: as §1, §2, §3, §4, §5, §6

PRKG1 (PKG1) = target: T13, PRKG1 (PKG1) (Homo sapiens, UniProt Q13976); details: estimated, abridged dose response curve, read-out: Kinase inhibitory activity EC50
T13 construct: purchased Invitrogen, Inc. (SelectScreen platform)
Procedure: as §1, §2, §3, §4, §5, §6

RET Y791F = target: T14, RET Y791F (Homo sapiens, UniProt P07949, Y791F); details: estimated, abridged dose response curve, read-out: Kinase inhibitory activity EC50
T14 construct: purchased Invitrogen (SelectScreen)
T14 sequence (P07949 29-1114 Y791F): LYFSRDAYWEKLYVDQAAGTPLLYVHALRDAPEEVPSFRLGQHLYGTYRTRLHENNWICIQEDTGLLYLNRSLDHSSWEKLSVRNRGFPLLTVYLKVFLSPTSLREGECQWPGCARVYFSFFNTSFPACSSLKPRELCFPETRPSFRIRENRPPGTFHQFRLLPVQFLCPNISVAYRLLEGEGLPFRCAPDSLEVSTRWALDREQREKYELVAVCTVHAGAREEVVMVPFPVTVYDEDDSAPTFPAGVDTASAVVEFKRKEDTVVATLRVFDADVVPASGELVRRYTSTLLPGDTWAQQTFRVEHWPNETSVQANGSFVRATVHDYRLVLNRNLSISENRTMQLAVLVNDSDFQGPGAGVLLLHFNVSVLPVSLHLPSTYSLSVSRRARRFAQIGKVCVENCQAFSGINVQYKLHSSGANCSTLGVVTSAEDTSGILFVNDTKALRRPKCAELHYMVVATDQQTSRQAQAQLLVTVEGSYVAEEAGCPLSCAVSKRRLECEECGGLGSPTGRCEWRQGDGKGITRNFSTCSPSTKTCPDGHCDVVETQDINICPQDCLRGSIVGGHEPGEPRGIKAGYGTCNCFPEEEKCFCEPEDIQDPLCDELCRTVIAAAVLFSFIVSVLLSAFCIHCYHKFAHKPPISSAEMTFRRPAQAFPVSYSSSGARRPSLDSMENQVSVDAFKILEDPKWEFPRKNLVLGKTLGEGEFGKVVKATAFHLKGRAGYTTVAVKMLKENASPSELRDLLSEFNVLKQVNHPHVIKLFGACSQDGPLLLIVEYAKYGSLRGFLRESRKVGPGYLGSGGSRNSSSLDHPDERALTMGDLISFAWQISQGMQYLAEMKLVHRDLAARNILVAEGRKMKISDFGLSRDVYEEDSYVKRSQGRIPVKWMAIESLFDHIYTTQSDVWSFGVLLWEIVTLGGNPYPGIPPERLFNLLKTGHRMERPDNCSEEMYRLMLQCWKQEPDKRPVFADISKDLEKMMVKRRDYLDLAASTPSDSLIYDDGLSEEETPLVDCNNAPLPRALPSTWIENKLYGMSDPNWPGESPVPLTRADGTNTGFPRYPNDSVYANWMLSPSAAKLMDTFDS
Procedure: as §1, §2, §3, §4, §5, §6

SRMS (Srm) = target: T15, SRMS (Srm) (Homo sapiens, UniProt Q9H3Y6); details: estimated, abridged dose response curve, read-out: Kinase inhibitory activity EC50
T15 construct: purchased Invitrogen (SelectScreen)
Procedure: as §1, §2, §3, §4, §5, §6

TAOK2 (TAO1) = target: T16, TAOK2 (TAO1) (Homo sapiens, UniProt Q9UL54); details: estimated, abridged dose response curve, read-out: Kinase inhibitory activity EC50
T16 construct: purchased Invitrogen (SelectScreen platform)
Procedure: as §1, §2, §3, §4, §5, §6

EC50 (GRK5; GRK5, estimated, abridged dose response curve, read-out: Kinase inhibitory activity EC50) [µM] | Compound | EC50 (BLK) [µM] | EC50 (CDK1/cyclin B (CDC2)) [µM] | EC50 (CSNK2A2 (CK2 alpha 2)) [µM] | EC50 (FLT3) [µM] | EC50 (GSK3B (GSK3 beta)) [µM] | EC50 (LYN A) [µM] | EC50 (MAPK12 (p38 gamma)) [µM] | EC50 (MAPK13 (p38 delta)) [µM] | EC50 (MAPKAPK2) [µM] | EC50 (MERTK (cMER)) [µM] | EC50 (PIM2) [µM] | EC50 (PRKG1 (PKG1)) [µM] | EC50 (RET Y791F) [µM] | EC50 (SRMS (Srm)) [µM] | EC50 (TAOK2 (TAO1)) [µM] | EC50 (GRK5) [µM]
> 5 | CN(C)CCCNc1ccc2ncn3c4ccc5[nH]ncc5c4c(=O)c1c23 [Compound (IV)] | 0.481 | 3.95 | > 5 | 0.008 | > 5 | 0.389 | > 5 | > 5 | > 5 | > 5 | > 5 | > 5 | 0.627 | > 5 | > 5 | –
– | CCN(CC)CCNc1ccc2ncn3c4ccc(O)cc4c(=O)c1c23 [Symadex, 5-(2-(diethylamino)ethylamino)-8-hydroxy-6H-imidazo[4,5,1-de]acridin-6-one, reference compound] | 0.22 | > 5 | 4.8 | 0.015 | > 5 | 0.791 | > 5 | > 5 | > 5 | 3.6 | > 5 | > 5 | 1.24 | > 5 | > 5 | > 5
